The values below come from patent publication US20230000773A1, “NOVEL HEADGROUP LIPID COMPOUNDS AND COMPOSITIONS FOR INTRACELLULAR DELIVERY OF THERAPEUTIC AGENTS” (ModernaTX, Inc., priority 2019, published 2023).

Series [1] in a line: Heparin-sepharose binding of nanoparticles.
Series [2] in a line: Encapsulation efficiency (% EE), ribogreen. It counts as physicochemical. Particulars: nanoparticles, compound:DSPC:cholesterol:PEG 2 50:10:38:2 mol %. An excerpt:
The efficiency of encapsulation of a therapeutic and/or prophylactic describes the amount of therapeutic and/or prophylactic that is encapsulated or otherwise associated with a lipid nanoparticle (e.g., an empty LNP or a loaded LNP) after preparation, relative to the initial amount provided. The encapsulation efficiency is desirably high (e.g., close to 100%). The encapsulation efficiency may be measured, for example, by comparing the amount of therapeutic and/or prophylactic in a solution containing the lipid nanoparticle (e.g., an empty LNP or a loaded LNP) before and after breaking up the lipid nanoparticle (e.g., an empty LNP or a loaded LNP) with one or more organic solvents or detergents. Fluorescence may be used to measure the amount of free therapeutic and/or prophylactic (e.g., RNA) in a solution.
(§1) Nanoparticle compositions including a therapeutic and/or prophylactic can be optimized according to the selection of a compound according to Formula (I), (I-1), (A), (A-1), (A-1a), or (A-1b), the selection of additional lipids, the amount of each lipid in the lipid component, and the wt:wt ratio of the lipid component to the therapeutic and/or prophylactic. Nanoparticle compositions including DSPC as a phospholipid, cholesterol as a structural lipid, PEG 2 as a PEG lipid, and a compound according to Formula (I), (I-1), (A), (A-1), (A-1a), or (A-1b) were prepared. The ratios of the lipids were 50:10:38:2 mol % for the lipid according to Formula (I), (I-1), (A), (A-1), (A-1a), or (A-1b):DSPC:cholesterol:PEG 2. […]

A short description of series [3]: Surface hydrophobicity by Generalized Polarization by Laurdan (GPL). Format: physicochemical. Particulars: normalized Generalized Polarization by Laurdan; higher N-GP = less polar surface. Put shortly: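 LNPs contained ionizable lipid:DSPC:cholesterol:PEG lipid at 50:10:38:2 mol %. Laurdan was post-inserted into the particle surface, and its fluorescence spectrum gave normalized generalized polarization (N-GP); higher N-GP means a less polar surface.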

The next series relates to hEPO mRNA. Put plainly: hEPO expression in CD1-mice after intravenous administration of nanoparticles. It counts as in vivo. Particulars: 6 h after intravenous administration, mRNA dose 0.5 mg/kg, N:P 3.4, compound:DSPC:cholesterol:PEG 2 50:10:38:2. The method, then: The expression of hEPO mRNA in CD1-mice was measured 6 h after intravenous administration of nanoparticles comprising a compound of the disclosure, DSPC, cholesterol, and PEG 2 in a ratio of 50:10:38:2. […] Each composition was dosed to 8 animals at an mRNA dose of 0.5 mg/kg.

Series [4] is described as follows: Size and polydispersity index of nanoparticles comprising compounds of the disclosure. Format: physicochemical. Conditions: compound:DSPC:cholesterol:PEG 2 50:10:38:2 mol %.
Description: Lipid nanoparticles (e.g., empty LNPs or loaded LNPs) may be characterized by a variety of methods. For example, microscopy (e.g., transmission electron microscopy or scanning electron microscopy) may be used to examine the morphology and size distribution of a nanoparticle composition. Dynamic light scattering or potentiometry (e.g., potentiometric titrations) may be used to measure zeta potentials. Dynamic light scattering may also be utilized to determine particle sizes. Instruments such as the Zetasizer Nano ZS (Malvern Instruments Ltd, Malvern, Worcestershire, UK) may also be used to measure multiple characteristics of a nanoparticle composition, such as particle size, polydispersity index, and zeta potential.
as §1

Series [5] can be described thus: Apparent LNP pKa by 2-(p-toluidino)-6-napthalene sulfonic acid (TNS) assay. It counts as physicochemical. Particulars: pH at half of maximum fluorescence.

`CCCCCCCCC(CC)OC(=O)CCCCCCCN(CCCCCCCC(=O)OC(CCCCCCCC)CCCCCCCC)CCCNc1ncncc1NC` (centres unmarked) [Compound 35, Heptadecan-9-yl 8-((3-((5-(methylamino)pyrimidin-4-yl)amino)propyl)(8-oxo-8-(undecan-3-yloxy)octyl)amino)octanoate]: in series [1], the “Relative % Area Bound by LNP” value stood at 2.90%. Also, in series [2], the “% EE (ribogreen)” value worked out at 96%. Also, the “Average N-GP” value in series [3] is reported as 0.888. Besides, the “Avg. [hEPO] mIU/mL” value in the series with hEPO mRNA was determined as 3.71E+05 mIU/mL. Besides, in series [4], the PDI turned out to be 0.176 and the “Size (nm)” value amounted to 91.2 nm. In series [5], the “LogIC50 (pKa)” value amounted to 7.27.
Consider `CCCCCCCCC(CC)OC(=O)CCCCCCCN(CCCCCCCC(=O)OC(CCCCCCCC)CCCCCCCC)CCCNC1=CC(=O)NC1` (centres unmarked) [Compound 45, Heptadecan-9-yl 8-((3-((5-oxo-2,5-dihydro-1H-pyrrol-3-yl)amino)propyl)(8-oxo-8-(undecan-3-yloxy)octyl)amino)octanoate], for which, in series [1], the “Relative % Area Bound by LNP” value is 31.46%. In series [2], the “% EE (ribogreen)” value is given as 98.5%. Moreover, in series [3], the “Average N-GP” value was 0.655. For the same compound, in the series on hEPO mRNA, the “Avg. [hEPO] mIU/mL” value was determined as 1.15E+05 mIU/mL. For the same compound, in series [4], the PDI is reported as 0.141 and the “Size (nm)” value was found to be 81.8 nm. The “LogIC50 (pKa)” value in series [5] was determined as 6.85.
As to `CCCCCCCCC(CC)OC(=O)CCCCCCCN(CCCCCCCC(=O)OC(CCCCCCCC)CCCCCCCC)CCCNC1=NCC(=O)N1` (centres unmarked) [Compound 57, Heptadecan-9-yl 8-((3-((4-oxo-4,5-dihydro-1H-imidazol-2-yl)amino)propyl)(8-oxo-8-(undecan-3-yloxy)octyl)amino)octanoate], the “Relative % Area Bound by LNP” value in series [1] turned out to be 1.09%. In series [2], the “% EE (ribogreen)” value is 98.2%. In addition, the “Average N-GP” value in series [3] stood at 0.582. The “Avg. [hEPO] mIU/mL” value in the series on hEPO mRNA is reported as 4.21E+04 mIU/mL. Further, in series [4], the PDI was determined as 0.132 and the “Size (nm)” value was found to be 58.8 nm. Also, in series [5], the “LogIC50 (pKa)” value came out at 6.52.
Take `CCCCCCCCC(CC)OC(=O)CCCCCCCN(CCCCCCCC(=O)OC(CCCCCCCC)CCCCCCCC)CCCNS(C)(=N)=O` (centres unmarked) [Compound 58, Heptadecan-9-yl 8-((3-(methylsulfonoamidimidamido)propyl)(8-oxo-8-(undecan-3-yloxy)octyl)amino)octanoate]: the “Relative % Area Bound by LNP” value in series [1] turned out to be 47.35%. In series [2], the “% EE (ribogreen)” value was 98.6%. Further, in series [3], the “Average N-GP” value came to 0.493. The “Avg. [hEPO] mIU/mL” value with hEPO mRNA is on record as 9.03E+04 mIU/mL. In addition, in series [4], the PDI came out at 0.142 and the “Size (nm)” value is 86.9 nm. The “LogIC50 (pKa)” value in series [5] stood at 7.05.
Take `CCCCCCCCC(CC)OC(=O)CCCCCCCN(CCCCCCCC(=O)OC(CCCCCCCC)CCCCCCCC)CCCNS(=O)(=O)NC` (centres unmarked) [Compound 59, Heptadecan-9-yl 8-((3-((N-methylsulfamoyl)amino)propyl)(8-oxo-8-(undecan-3-yloxy)octyl)amino)octanoate]: the “Relative % Area Bound by LNP” value in series [1] is on record as 0%. The “% EE (ribogreen)” value in series [2] is on record as 98.3%. In series [3], the “Average N-GP” value was determined as 0.762. Besides, the “Avg. [hEPO] mIU/mL” value in the series with hEPO mRNA was determined as 2.49E+05 mIU/mL. Further, in series [4], the PDI stood at 0.16 and the “Size (nm)” value is on record as 72.7 nm. Moreover, the “LogIC50 (pKa)” value in series [5] worked out at 6.74.
Take `CCCCCCCCC(CC)OC(=O)CCCCCCCN(CCCCCCCC(=O)OC(CCCCCCCC)CCCCCCCC)CCCNC(=S)C1(C)CC1` (centres unmarked) [Compound 61, Heptadecan-9-yl 8-((3-(1-methylcyclopropane-1-carbothioamido)propyl)(8-oxo-8-(undecan-3-yloxy)octyl)amino)octanoate]: the “Relative % Area Bound by LNP” value in series [1] was determined as 1.73%. In addition, the “% EE (ribogreen)” value in series [2] is 49.1%. Also, the “Average N-GP” value in series [3] amounted to 0.900. The “Avg. [hEPO] mIU/mL” value in the series on hEPO mRNA is 1.52E+03 mIU/mL. Also, in series [4], the PDI came to 0.375 and the “Size (nm)” value stood at 79.6 nm. Also, the “LogIC50 (pKa)” value in series [5] is recorded as 5.95.
On to `CCCCCCCCC(CC)OC(=O)CCCCCCCN(CCCCCCCC(=O)OC(CCCCCCCC)CCCCCCCC)CCCNC(=O)c1ccc2c(c1)B(O)OC2` (centres unmarked) [Compound 62, Heptadecan-9-yl 8-((3-(1-hydroxy-1,3-dihydrobenzo[c][1,2]oxaborole-6-carboxamido)propyl)(8-oxo-8-(undecan-3-yloxy)octyl)amino)octanoate], for which the “Relative % Area Bound by LNP” value in series [1] came out at 3.99%. For the same compound, the “% EE (ribogreen)” value in series [2] worked out at 28.3%. Besides, the “Average N-GP” value in series [3] was found to be 0.890. In addition, in the series with hEPO mRNA, the “Avg. [hEPO] mIU/mL” value is on record as 1.60E+05 mIU/mL. For the same compound, in series [4], the PDI was found to be 0.233 and the “Size (nm)” value came out at 124.3 nm. Further, in series [5], the “LogIC50 (pKa)” value was 6.80.
For the compound `CCCCCCCCC(CC)OC(=O)CCCCCCCN(CCCCCCCC(=O)OC(CCCCCCCC)CCCCCCCC)CCCNS(=O)(=O)CCOCc1ccccc1` (centres unmarked) [Compound 63, Heptadecan-9-yl 8-((3-((2-(benzyloxy)ethyl)sulfonamido)propyl)(8-oxo-8-(undecan-3-yloxy)octyl)amino)octanoate], the “Relative % Area Bound by LNP” value in series [1] was 6.25%. Moreover, the “% EE (ribogreen)” value in series [2] amounted to 37.7%. In addition, the “Average N-GP” value in series [3] came out at 0.866. Also, the “Avg. [hEPO] mIU/mL” value in the series on hEPO mRNA stood at 1.90E+05 mIU/mL. Also, in series [4], the PDI was 0.273 and the “Size (nm)” value worked out at 126.4 nm. The “LogIC50 (pKa)” value in series [5] was found to be 6.41.
With `CCCCCCCCC(CC)OC(=O)CCCCCCCN(CCCCCCCC(=O)OC(CCCCCCCC)CCCCCCCC)CCCNS(C)(=O)=O` (centres unmarked) [Compound 65, Heptadecan-9-yl 8-((3-(methylsulfonamido)propyl)(8-oxo-8-(undecan-3-yloxy)octyl)amino)octanoate], in series [1], the “Relative % Area Bound by LNP” value was 4.86%. Also, the “% EE (ribogreen)” value in series [2] was determined as 96.8%. Further, the “Average N-GP” value in series [3] came to 0.713. The “Avg. [hEPO] mIU/mL” value with hEPO mRNA was determined as 3.64E+05 mIU/mL. Moreover, in series [4], the PDI was found to be 0.155 and the “Size (nm)” value is recorded as 73.2 nm. Also, in series [5], the “LogIC50 (pKa)” value is given as 6.81.
As to `CCCCCCCCC(CC)OC(=O)CCCCCCCN(CCCCCCCC(=O)OC(CCCCCCCC)CCCCCCCC)CCCNS(=O)(=O)c1ccn(C)n1` (centres unmarked) [Compound 68, Heptadecan-9-yl 8-((3-((1-methyl-1H-pyrazole)-3-sulfonamido)propyl)(8-oxo-8-(undecan-3-yloxy)octyl)amino)octanoate], the “Relative % Area Bound by LNP” value in series [1] was determined as 1.12%. The “% EE (ribogreen)” value in series [2] turned out to be 96.6%. Besides, the “Average N-GP” value in series [3] came to 0.822. Besides, in the series on hEPO mRNA, the “Avg. [hEPO] mIU/mL” value turned out to be 4.29E+05 mIU/mL. Moreover, in series [4], the PDI worked out at 0.109 and the “Size (nm)” value is 63.2 nm. Besides, the “LogIC50 (pKa)” value in series [5] was 6.71.
Take `CCCCCCCCC(CC)OC(=O)CCCCCCCN(CCCCCCCC(=O)OC(CCCCCCCC)CCCCCCCC)CCCNS(=O)(=O)c1ncc[nH]1` (centres unmarked) [Compound 69, Heptadecan-9-yl 8-((3-(1H-imidazole-2-sulfonamido)propyl)(8-oxo-8-(undecan-3-yloxy)octyl)amino)octanoate]: in series [1], the “Relative % Area Bound by LNP” value is 0.93%. Besides, in series [2], the “% EE (ribogreen)” value amounted to 97%. For the same compound, the “Average N-GP” value in series [3] was found to be 0.812. The “Avg. [hEPO] mIU/mL” value in the series on hEPO mRNA came to 2.61E+05 mIU/mL. In addition, in series [4], the PDI stood at 0.108 and the “Size (nm)” value is recorded as 66.8 nm. In addition, the “LogIC50 (pKa)” value in series [5] is recorded as 6.56.
